Tests used:
[1] = test system: MIA PaCa-2 cells; experiment: MTS cell viability assay in human pancreatic cancer cells; format: cell-based; details: in combination with Trametinib, 72 hours
Procedure: Example 4 Evaluation of efficacy of kinase inhibitor with use of human pancreatic cancer cells Human pancreatic cancer cell line (MIA PaCa-2) was purchased from National Institute of RIKEN BioResource Research Center, and cultured in Dulbecco's Modified Eagle's Medium (Nacalai tesque) supplemented with 10% fetal bovine serum (Gibco) and 1% penicillin-streptomycin (Nacalai tesque) at 37° C. in the presence of 5% CO2.
Trametinib (DMSO only, 1 μM, 300 μM), Adavosertib (300 μM, 1 mM), AD80 (30 μM, 3 mM), Alisertib (30 μM, 1 mM) and BI-831266 (3 μM, 3 mM) was each prepared and diluted to 100-fold in the medium to produce a drug solution.
MIA PaCa-2 cells were seeded into a 96-well plate at 1000 cells/well (in 100 μL medium). After culturing for one day, 10 μL of the drug solution of Trametinib alone or Trametinib combined with another kinase inhibitor was added to the cells in each well on the 96-well plate (0.2% final concentration of DMSO). Each combination was tested in five wells. After the addition of the drug solution, the cells were cultured at 37° C. for 72 hours in the presence of 5% CO2, and then the cell viability was measured using MTS assay (CellTiter 96 (registered trademark), Promega). The viability is expressed as a ratio to that of a control (solvent only).

[2] = test system: 4-hit flies (non-GFP); experiment: Efficacy of kinase inhibitors on 4-hit fly survival rate (drug food); format: in vivo, Drosophila; details: used alone; 1 M Trametinib in food; reared at 25° C. for 13 days
Procedure: Trametinib (MEK inhibitor), Adavosertib (referred also to as MK-1775, WEE1 inhibitor), AD80 (FRK inhibitor), Y-27632 (ROCK inhibitor), Alisertib (AURKA inhibitor, the above all purchased from MedChem Express), BI-831266 (AURKB inhibitor, obtained from Boehringer Ingelheim) was each dissolved in DMSO (SIGMA) and stored at −20° C.
Agar (Wako), brewers' yeast (MP Bio), yeast extract (Sigma Aldrich), bacto casitone (BD), sucrose (Wako), glucose (Wako), MgCl2 (Wako) CaCl2 (Wako), Propionic acid (Wako), and Mold inhibitor (10% Methyl-4-hydroxy Benzoate in 95% Ethanol; Wako) were dissolved in ultrapure water to prepare a standard food. While kept at 50° C., the kinase inhibitor (Trametinib alone or a combination of Trametinib and another kinase inhibitor) dissolved in DMSO was added for mixing. The resulting solution was cooled to obtain a drug food. The final concentrations of the compounds in the food were […] for Trametinib, 100 μM for Adavosertib, 50 μM for AD80, 10 μM for Y-27632, and 100 μM for BI-831266.
The UAS-Ras^G12D, UAS-p53^shRNA, UAS-CycE, UAS-Med^shRNA fly produced in Example 1 was mated with a Ser-gal4 fly (Bloomington Drosophila Stock Center). […] The eggs were reared at 25° C. for 13 days, and survival rate of 4-hit flies (non-GFP) reared on each food was calculated by dividing the number of eclosed pupae by the total number of pupae.

| SMILES | cell viability compared to that of Trametinib used alone [1] | increase of survival rate of 4-hit flies (non-GFP) [2] |
| --- | --- | --- |
| CC(C)n1nc(-c2ccc(NC(=O)Nc3cc(C(F)(F)F)ccc3F)cc2)c2c(N)ncnc21 [AD80] | greatly reduced the cell viability | – |
| C=CCn1c(=O)c2cnc(Nc3ccc(N4CCN(C)CC4)cc3)nc2n1-c1cccc(C(C)(C)O)n1 [Adavosertib] | greatly reduced the cell viability | – |
| COc1cc(Nc2ncc3c(n2)-c2ccc(Cl)cc2C(c2c(F)cccc2OC)=NC3)ccc1C(=O)O [Alisertib] | greatly reduced the cell viability | – |
| CC(=O)Nc1cccc(-n2c(=O)n(C3CC3)c(=O)c3c(Nc4ccc(I)cc4F)n(C)c(=O)c(C)c32)c1 [Trametinib] | – | 20% |

Source: patent US20220387630A1, “METHOD FOR SCREENING ANTICANCER AGENT AND COMBINATION DRUG OF KINASE INHIBITORS FOR TREATMENT OF PANCREATIC CANCER” (National University Corporation Hokkaido University, priority 2020, published 2022)
